Values quoted from earlier work, collected in patent publication US9320732B2, “1,2,5-oxadiazoles as inhibitors of indoleamine 2,3-dioxygenase” (Incyte Corporation, priority 2008, dated 2016).

Columns and labels:
LLC tumors = details: C57Bl/6 mice, versus placebo
[1] = system: allogeneic concepti in pregnant mice; details: pregnant mice exposed to 1MT
P815 tumor = details: immune-competent pre-immunized mice

SMILES: Cn1cc(C[C@H](N)C(=O)O)c2ccccc21 [Example 1-MT, 1-methyl-tryptophan]
- formation of LLC tumors (LLC tumors): markedly delayed
- rejection of allogeneic concepti [1]: rapid, T cell-induced rejection of all allogeneic concepti
- growth of tumors in pre-immunization model (P815 tumor): inhibited
